Reference: PMC11446937, “Bacteria from the Amycolatopsis genus associated with a toxic bird secrete protective secondary metabolites” (Nature Communications, 2024)

How the values were obtained:
[1] = system: Penicillium notatum JP36; assay: Disc-diffusion antimicrobial assay, clinically relevant indicator strains; assay type: cell-based; details: Suppl. Table 17, 1 mg/mL in DMSO, 50 µl (50 µg) per disc, Amph B 10 µg/mL (DMSO/H2O), DMSO solvent control itself 12P, n=3
Protocol: (§1) Disc-diffusion antimicrobial activity assays against clinically relevant indicator strains.
(§2) Pure compounds (1 mg/mL in DMSO or 50% MeOH) were tested for their antimicrobial activity against a variety of bacterial and fungal indicator strains: B. subtilis 6633 (Bs), S. aureus SG511 (Sa1), E. coli SG458 (Ec), P. aeruginosa K799/61 (Pa), S. aureus 134/94 (MRSA) (Sa2), E. faecalis 1528 (VRSA) (Ef), Mycobacterium vaccae 10670 (Mv), Sporobomyces salmonicolor 549 (Ss), C. albicans C.A. (Ca), and Penicillium notatum JP36 (Pn). On each disc, 50 µl compound solution (50 µg) were applied. Antimicrobial activity was determined by measuring the inhibition zone surrounding the disc in mm (n=3).
(§3) Bs: B. subtilis 663, Sa1: S. aureus SG511, Ec: E. coli SG458, Pa: P. aeruginosa K799/61, Sa2: S. aureus 134/94 (MRSA), Ef: E. faecalis 1528 (VRSA), Mv: M. vaccae 10670, Ss: S. salmonicolor 549, Ca: C. albicans C.A., Pn: P. notatum JP36. P: colonies in the inhibition zone, p: single colonies in the inhibition zone. A: no to low inhibition, n.t.: not tested.
(§4) B. subtilis 663, Sa1: S. aureus SG511, Ec: E. coli SG458, Ca: C. albicans C.A., P: colonies in the inhibition zone, […]

[2] = system: Sporobomyces salmonicolor 549; assay: as above; assay type: cell-based; details: Suppl. Table 17, 1 mg/mL in DMSO, 50 µl (50 µg) per disc, Amph B 10 µg/mL (DMSO/H2O), DMSO solvent control itself 13P, n=3
Protocol: as §1, §2, §3, §4

[3] = system: C. albicans C.A.; assay: as above; assay type: cell-based; details: Amph B 10 µg/mL (DMSO/H2O)
Protocol: as §1, §2, §3, §4

[4] = system: C. albicans SC5314; assay: Disc-diffusion antimicrobial assay, ecologically relevant indicator strains; assay type: cell-based, Candida albicans; details: Suppl. Table 16, pure compounds 10 mg/mL in DMSO, 5 µl per disc, control Amph B 10 µg/mL (DMSO/H2O), DMSO control 0, n=1
[5] = system: P. monteilii DSM1388; assay: as above; assay type: cell-based, Pseudomonas monteilii; details: Suppl. Table 16, pure compounds 10 mg/mL in DMSO, 5 µl per disc, control Cip 5 µg/mL (HCl), DMSO control 0, n=1
[6] = system: B. thuringiensis DSM104061; assay: as above; assay type: cell-based, Bacillus thuringiensis; details: Suppl. Table 16, pure compounds 10 mg/mL in DMSO, 5 µl per disc, control Cip 5 µg/mL (HCl), DMSO control 0, n=1
[7] = system: B. licheniformis DSM13; assay: as above; assay type: cell-based, Bacillus licheniformis; details: Suppl. Table 16, pure compounds 10 mg/mL in DMSO, 5 µl per disc, control Cip 5 µg/mL (HCl), DMSO control 0, n=1
[8] = system: K. rhizophila DSM11926; assay: as above; assay type: cell-based, Kocuria rhizophila; details: Suppl. Table 16, pure compounds 10 mg/mL in DMSO, 5 µl per disc, control Cip 5 µg/mL (HCl), DMSO control 0, n=1
[9] = system: S. aureus 134/94 (MRSA); assay: Disc-diffusion antimicrobial assay, clinically relevant indicator strains; details: Suppl. Table 17, 1 mg/mL in DMSO, 50 µl (50 µg) per disc, Cip 5 µg/mL (H2O/HCl), DMSO solvent control 0, n=3
[10] = system: ZIKV NS2B-NS3; details: 200 µM
[11] = system: Mycobacterium vaccae 10670; assay: Disc-diffusion antimicrobial assay, clinically relevant indicator strains; details: Suppl. Table 17, 1 mg/mL in DMSO, 50 µl (50 µg) per disc, Cip 5 µg/mL (H2O/HCl), DMSO solvent control itself 11P, n=3
[12] = system: cruzain; assay: Fluorimetric protease inhibition assay; assay type: biochemical, Trypanosoma cruzi; details: 200 µM, 10 min, mean ± standard deviation, n=3
[13] = system: SARS-CoV2 Mpro; details: 200 µM; fluorimetric, 10 min; mean ± standard deviation, n=3
[14] = system: B. subtilis 6633; assay: Disc-diffusion antimicrobial assay, clinically relevant indicator strains; details: Suppl. Table 17, 1 mg/mL in DMSO, 50 µl (50 µg) per disc, Cip 5 µg/mL (H2O/HCl), DMSO solvent control itself 12P, n=3
[15] = system: P. aeruginosa K799/61; details: Suppl. Table 17; disc diffusion; 1 mg/mL in DMSO, 50 µl (50 µg) per disc; Cip 5 µg/mL (H2O/HCl); DMSO solvent control itself 12P; n=3
[16] = system: E. coli SG458; assay: Disc-diffusion antimicrobial assay, clinically relevant indicator strains; details: Suppl. Table 17, 1 mg/mL in DMSO, 50 µl (50 µg) per disc, Cip 5 µg/mL (H2O/HCl), DMSO solvent control itself 12P, n=3
[17] = system: urokinase (uPA); assay: Fluorimetric protease inhibition assay; assay type: biochemical; details: 200 µM, 10 min, mean ± standard deviation, n=3
[18] = system: cathepsin B; assay: Fluorimetric protease inhibition assay; assay type: biochemical; details: 200 µM, 10 min, mean ± standard deviation, n=3
[19] = system: cathepsin L; assay: Fluorimetric protease inhibition assay; assay type: biochemical; details: 200 µM, 10 min, mean ± standard deviation, n=3
[20] = system: DENV2 NS2B-NS3; assay: Fluorimetric protease inhibition assay; assay type: biochemical; details: 200 µM, 10 min, mean ± standard deviation, n=3
[21] = system: S. aureus SG511; assay: Disc-diffusion antimicrobial assay, clinically relevant indicator strains; details: Suppl. Table 17, 1 mg/mL in DMSO, 50 µl (50 µg) per disc, Cip 5 µg/mL (H2O/HCl), DMSO solvent control itself 11P, n=3
[22] = system: sortase A (SrtA); details: 200 µM
[23] = system: rhodesain; details: 200 µM
[24] = system: SARS-CoV PLpro; details: 200 µM; fluorimetric, 10 min; mean ± standard deviation, n=3
[25] = Suppl. Table 17, disc diffusion, 1 mg/mL in DMSO, 50 µl (50 µg) per disc, DMSO solvent control 0, n=3

Compound	inhibition zone, Pn [1] [p]	inhibition zone, Ss [2] [p]	inhibition zone, Ca [3, 25] [mm]	inhibition zone, Ca2 [4] [mm]	inhibition zone, Pm [5] [mm]	inhibition zone, Bt [6] [mm]	inhibition zone, Bl [7] [mm]	inhibition zone, Kr [8] [mm]	inhibition zone, Sa2 [9] [mm]	Protease inhibition rate, Cruzain [12] [%]	Protease inhibition rate, Mpro (SARS-CoV2) [13] [%]	inhibition zone, Bs [14] [mm]	inhibition zone, Ec [16]	Protease inhibition rate, uPA [17] [%]	Protease inhibition rate, Cathepsin B [18] [%]	Protease inhibition rate, Cathepsin L [19] [%]	Protease inhibition rate, DENV2 [20] [%]	inhibition zone, Sa1 [21] [mm]	Protease inhibition rate, SrtA [22]	Protease inhibition rate, Rhodesain [23]	further results
C[C@@H]1[C@H](O)[C@@H](C)/C=C/C=C/C=C/C=C/C=C/C=C/C=C/[C@H](O[C@@H]2O[C@H](C)[C@@H](O)[C@H](N)[C@@H]2O)C[C@@H]2O[C@](O)(C[C@@H](O)C[C@@H](O)[C@H](O)CC[C@@H](O)C[C@@H](O)CC(=O)O[C@H]1C)C[C@H](O)[C@H]2C(=O)O [Amph B, Amphotericin B, reference compound]	18	17	20	20																	inhibition zone, Ca ([3]; Suppl. Table 18, compound mixtures, total conc. 1 mg/mL in 50% MeOH, solvent control 0, n=1): 21 mm
O=C(O)c1cn(C2CC2)c2cc(N3CCNCC3)c(F)cc2c1=O [Cip, Ciprofloxacin, reference compound]					33	28	35	22													
Pachycephalamide A [Compound 1]	11	15		0	0	0	0	0	0	64.85 ± 1.50	12.82 ± 8.66	0	0 mm	8.32 ± 4.90	55.19 ± 2.16	61.88 ± 2.85	8.57 ± 3.83	0	12.86 ± 2.35	55.29 ± 2.15	Protease inhibition rate, ZIKV [10]: 7.99 ± 3.53; inhibition zone, Mv [11]: 0 mm; inhibition zone, Pa [15]: 18P; Protease inhibition rate, PLpro (SARS-CoV) [24]: 1.01 ± 1.74%
Pachycephalamide B [Compound 2]	13	14	0	0	0	0	0	0	0	49.62 ± 3.44	57.34 ± 9.94	0	15P	0 ± 0	54.94 ± 2.96	50.42 ± 1.21	29.25 ± 7.00	0	61.07 ± 4.93	47.71 ± 2.73	Protease inhibition rate, ZIKV [10]: 29.95 ± 3.36; inhibition zone, Pa [15]: 18P; Protease inhibition rate, PLpro (SARS-CoV) [24]: 14.94 ± 1.31%
Pachycephalamide C [Compound 3]	13	22	0	0	0	0	0	0	0	63.82 ± 1.43	9.25 ± 7.28	0	15P	0 ± 0	56.16 ± 6.18	62.51 ± 4.09	9.19 ± 3.06	0	14.00 ± 4.62	58.33 ± 1.36	Protease inhibition rate, PLpro (SARS-CoV) [24]: 0 ± 0%
Pachycephalamide D [Compound 4]	12	25	0	0	0	0	0	0	0	73.97 ± 1.54	24.32 ± 2.62	0	13P	0.56 ± 0.90	73.50 ± 4.05	78.67 ± 2.19	33.81 ± 3.08	0	28.78 ± 4.59	72.76 ± 1.07	Protease inhibition rate, ZIKV [10]: 35.04 ± 1.21; inhibition zone, Mv [11]: 0 mm; inhibition zone, Pa [15]: 18P; Protease inhibition rate, PLpro (SARS-CoV) [24]: 2.05 ± 2.29%
